Laboratory results from patent US20060173015A1, “Cyclohexyldiamines as selective alpha 1a/1d adrenoreceptor antagonists for the treatment of benign prostatic hypertrophy and lower urinary tract symptoms” (priority 2004, published 2006).
pKi: −log10 of the molar value.

Experiments:
[1] = molecular target: T1, α1b-AR (Homo sapiens, UniProt P35368); assay: α1-Adrenergic receptor radio-ligand (125I-HEAT) binding assay, α1b subtype; details: Receptor Binding, Ki α1b-AR, COS-7 cell membranes, 125I-HEAT
T1 sequence (P35368 1-520): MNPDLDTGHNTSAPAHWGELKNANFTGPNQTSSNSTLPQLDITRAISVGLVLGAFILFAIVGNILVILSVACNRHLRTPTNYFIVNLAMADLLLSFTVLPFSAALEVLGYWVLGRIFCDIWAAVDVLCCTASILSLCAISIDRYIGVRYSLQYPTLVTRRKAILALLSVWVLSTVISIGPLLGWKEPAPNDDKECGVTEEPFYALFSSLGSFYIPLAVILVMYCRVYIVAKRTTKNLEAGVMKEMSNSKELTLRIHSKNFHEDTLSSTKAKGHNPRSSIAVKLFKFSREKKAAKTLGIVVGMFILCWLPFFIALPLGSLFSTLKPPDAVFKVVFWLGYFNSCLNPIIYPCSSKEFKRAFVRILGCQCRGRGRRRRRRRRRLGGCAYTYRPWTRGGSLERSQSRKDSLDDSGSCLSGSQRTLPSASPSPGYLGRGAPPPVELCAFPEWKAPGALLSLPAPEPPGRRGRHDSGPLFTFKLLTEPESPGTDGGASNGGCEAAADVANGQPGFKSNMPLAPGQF

[2] = molecular target: T2, α1d-AR (Homo sapiens, UniProt P25100); assay: α1-Adrenergic receptor radio-ligand (125I-HEAT) binding assay, α1d subtype; details: COS-7 cell membranes, 125I-HEAT; read-out: Receptor Binding, Ki α1d-AR
T2 construct: expressed in transfected cells; host or cells: COS-7
T2 sequence (P25100 1-572): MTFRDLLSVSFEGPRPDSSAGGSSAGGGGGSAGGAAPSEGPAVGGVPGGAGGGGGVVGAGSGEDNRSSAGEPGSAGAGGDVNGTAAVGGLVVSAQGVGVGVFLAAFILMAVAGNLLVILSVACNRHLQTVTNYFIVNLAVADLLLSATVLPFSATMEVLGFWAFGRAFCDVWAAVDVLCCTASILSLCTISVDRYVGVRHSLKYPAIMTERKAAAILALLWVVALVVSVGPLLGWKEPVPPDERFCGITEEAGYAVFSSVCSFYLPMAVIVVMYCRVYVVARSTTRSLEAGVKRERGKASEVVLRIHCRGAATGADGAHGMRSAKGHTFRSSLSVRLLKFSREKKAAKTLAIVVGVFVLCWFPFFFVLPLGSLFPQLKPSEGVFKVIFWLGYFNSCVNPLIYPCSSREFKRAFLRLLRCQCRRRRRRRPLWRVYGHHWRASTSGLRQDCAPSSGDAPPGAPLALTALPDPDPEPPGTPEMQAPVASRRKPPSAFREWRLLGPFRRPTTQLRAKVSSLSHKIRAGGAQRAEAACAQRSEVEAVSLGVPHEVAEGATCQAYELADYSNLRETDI
Experimental: (§1) α1-Adrenergic Receptor Binding Assay: Preparation of COS Cell Membranes
(§2) Membranes were prepared from COS-7 cells that had been transfected with one of the three α1-AR subtypes by the following method. COS cells from ten 100 mm tissue culture plates were scraped into 5 mL TE (50 mM Tris-HCl, 5 mM EDTA, pH 7.4). The cell suspension was disrupted with a Brinkman Polytron, setting 8, for 10 sec. The disrupted cells were centrifuged at 1000×g for 10 min at 4° C. Supernatants were centrifuged at 34,500×g for 20 min at 4° C. The membrane pellets were suspended in 2 mL TNE (50 mM Tris-HCl, 5 mM EDTA, 150 mM NaCl, pH7.4). An aliquot of the membrane suspension was stored at −70° C. until use. The protein concentration was determined using the BioRad DC protein assay kit following membrane solubilization with Triton X-100.
(§3) Radio-Ligand Binding Assay
Triplicate determinations of radio-ligand binding in the presence of increasing: concentrations of testing compound were made. The reagents were added to 96-well polypropylene plate wells using the Biomek 1000 robot (Beckman Instruments). […] The plate was incubated at rt for 1 hr. The contents of the wells were filtered through a GF/C membrane Unifilter plate (Packard Instruments) using the Packard Filtermate cell harvester. The filter plates were dried in a vacuum oven for 30 min at 40° C. 25 μL Microscint 20 liquid scintillation fluid (Packard Instuments) was added to each well. The radioactive content was analyzed in the TopCount microplate scintillation counter (Packard Instruments).

[3] = molecular target: T3, α1a-AR (Homo sapiens, UniProt P35348); assay: α1-Adrenergic receptor radio-ligand (125I-HEAT) binding assay, α1a subtype; details: COS-7 cell membranes, 125I-HEAT
T3 construct: expressed in transfected cells; host or cells: COS-7
T3 sequence (P35348 1-466): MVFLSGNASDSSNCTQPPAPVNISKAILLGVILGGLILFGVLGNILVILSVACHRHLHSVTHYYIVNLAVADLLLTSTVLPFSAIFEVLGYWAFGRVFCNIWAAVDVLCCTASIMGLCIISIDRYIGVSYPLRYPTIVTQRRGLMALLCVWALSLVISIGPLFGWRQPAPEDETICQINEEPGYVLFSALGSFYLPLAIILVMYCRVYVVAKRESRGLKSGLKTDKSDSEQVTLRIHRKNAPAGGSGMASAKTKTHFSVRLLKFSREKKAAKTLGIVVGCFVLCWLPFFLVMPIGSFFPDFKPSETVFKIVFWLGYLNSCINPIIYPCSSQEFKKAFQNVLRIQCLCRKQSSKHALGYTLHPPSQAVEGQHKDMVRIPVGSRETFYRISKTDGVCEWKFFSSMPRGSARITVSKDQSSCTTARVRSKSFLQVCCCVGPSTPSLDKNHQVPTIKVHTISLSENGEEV
Experimental: as §1, §2, §3
Triplicate determinations of radio-ligand binding in the presence of increasing: concentrations of testing compound were made. The reagents were added to 96-well polypropylene plate wells using the Biomek 1000 robot (Beckman Instruments). Each assay well contained 140 μl TNE, 25 μL ^125I-HEAT (specific activity 2200 Ci/mmol, Dupont-NEN, 50 pM final), 10 μL testing compound dissolved in DMSO (1 pM to 10 μM in half-log increments, final), and 25 μL appropriate α1-AR membrane subtype suspension in TNE (0.5 ng/μL for the α1a and α1b subtypes and 13 ng/μL for the α1d subtype). The plate was incubated at rt for 1 hr. The contents of the wells were filtered through a GF/C membrane Unifilter plate (Packard Instruments) using the Packard Filtermate cell harvester. The filter plates were dried in a vacuum oven for 30 min at 40° C. 25 μL Microscint 20 liquid scintillation fluid (Packard Instuments) was added to each well. The radioactive content was analyzed in the TopCount microplate scintillation counter (Packard Instruments).

pKi [1]	pKi [2]	pKi [3]	SMILES
6.97	8.48	8.46	CC(C)Oc1ccccc1N1CCN([C@H]2CC[C@@H](NS(=O)(=O)c3cccc(F)c3)CC2)CC1 [Cpd 22, 3-Fluoro-N-cis-{4-[4-(2-isopropoxy-phenyl)-piperazin-1-yl]-cyclohexyl}-benzenesulfonamide]
6.95	8.28	7.86	CC(C)Oc1ccccc1N1CCN([C@H]2CC[C@@H](NS(=O)(=O)c3ccccc3)CC2)CC1 [Cpd 25]
6.70	8.60	8.20	CC(C)Oc1ccccc1N1CCN([C@H]2CC[C@@H](NS(=O)(=O)c3ccccc3[N+](=O)[O-])CC2)CC1 [Cpd 26]
6.22	8.07	8.80	CC(C)Oc1ccccc1N1CCN([C@H]2CC[C@H](NS(=O)(=O)c3ccc(Cl)cc3Cl)CC2)CC1 [Cpd 29, 2,4-Dichloro-N-trans-{4-[4-(2-isopropoxy-phenyl)-piperazine-1-yl]-cyclohexyl}-benzenesulfonamide]
6.66	7.51	9.05	COc1ccc(C)cc1S(=O)(=O)N[C@H]1CC[C@H](N2CCN(c3ccccc3OC(C)C)CC2)CC1 [Cpd 32, N-trans-{4-[4-(2-Isopropoxy-phenyl)-piperazin-1-yl]-cyclohexyl}-2-methoxy-5-methyl-benzenesulfonamide]
6.93	8.55	7.90	CC(C)Oc1ccccc1N1CCN([C@H]2CC[C@H](NS(=O)(=O)c3ccccc3S(C)(=O)=O)CC2)CC1 [Cpd 33, N-trans-{4-[4-(2-Isopropoxy-phenyl)-piperazin-1-yl]-cyclohexyl}-2-methanesulfonyl-benzenesulfonamide]
6.03	7.19	7.17	CC(C)Oc1ccccc1N1CCN([C@H]2CC[C@H](NS(=O)(=O)c3ccc(C(F)(F)F)cc3)CC2)CC1 [Cpd 37, N-trans-{4-[4-(2-Isopropoxy-phenyl)-piperazin-1-yl]-cyclohexyl}-4-trifluoromethyl-benzenesulfonamide]
6.52	7.44	8.89	CC(C)Oc1ccccc1N1CCN([C@H]2CC[C@H](NS(=O)(=O)c3ccc(F)cc3)CC2)CC1 [Cpd 38, 4-Fluoro-N-trans-{4-[4-(2-isopropoxy-phenyl)-piperazin-1-yl]-cyclohexyl}-benzenesulfonamide]
6.26	8.27	8.96	Cc1c(Cl)cccc1S(=O)(=O)N[C@H]1CC[C@H](N2CCN(c3ccccc3OC(C)C)CC2)CC1 [Cpd 39, 3-Chloro-N-trans-{4-[4-(2-isopropoxy-phenyl)-piperazin-1-yl]-cyclohexyl}-2-methyl-benzenesulfonamide]
6.36	7.56	8.05	CC(C)Oc1ccccc1N1CCN([C@H]2CC[C@H](NS(=O)(=O)c3cc(Cl)ccc3F)CC2)CC1 [Cpd 40, 5-Chloro-2-fluoro-N-trans-{4-[4-(2-isopropoxy-phenyl)-piperazin-1-yl]-cyclohexyl}-benzenesulfonamide]
6.07	6.61	7.74	CC(C)Oc1ccccc1N1CCN([C@H]2CC[C@H](NS(=O)(=O)c3ccccc3C(F)(F)F)CC2)CC1 [Cpd 41, N-trans-{4-[4-(2-Isopropoxy-phenyl)-piperazin-1-yl]-cyclohexyl}-2-trifluoromethyl-benzenesulfonamide]
5.64	7.14	8.18	CC(C)Oc1ccccc1N1CCN([C@H]2CC[C@H](NS(=O)(=O)c3ccc(F)c(Cl)c3)CC2)CC1 [Cpd 42, 3-Chloro-4-fluoro-N-trans-{4-[4-(2-isopropoxy-phenyl)-piperazin-1-yl]-cyclohexyl}-benzenesulfonamide]
6.15	7.18	7.96	COc1ccc(F)cc1S(=O)(=O)N[C@H]1CC[C@H](N2CCN(c3ccccc3OC(C)C)CC2)CC1 [Cpd 43, 5-Fluoro-N-trans-{4-[4-(2-isopropoxy-phenyl)-piperazin-1-yl]-cyclohexyl}-2-methoxy-benzenesulfonamide]
5.90	6.95	7.00	CC(C)Oc1ccccc1N1CCN([C@H]2CC[C@H](NS(=O)(=O)c3ccc(OC(F)(F)F)cc3)CC2)CC1 [Cpd 45, N-trans-{4-[4-(2-Isopropoxy-phenyl)-piperazin-1-yl]-cyclohexyl}-4-trifluoromethoxy-benzenesulfonamide]
6.71	7.80	8.82	Cc1ccc(S(=O)(=O)N[C@H]2CC[C@H](N3CCN(c4ccccc4OC(C)C)CC3)CC2)cc1Cl [Cpd 46, 3-Chloro-N-trans-{4-[4-(2-isopropoxy-phenyl)-piperazin-1-yl]-cyclohexyl}-4-methyl-benzenesulfonamide]
6.76	7.66	9.00	COc1ccc([N+](=O)[O-])cc1S(=O)(=O)N[C@H]1CC[C@H](N2CCN(c3ccccc3OC(C)C)CC2)CC1 [Cpd 47, N-trans-{4-[4-(2-Isopropoxy-phenyl)-piperazin-1-yl]-cyclohexyl}-2-methoxy-5-nitro-benzenesulfonamide]
6.59	8.82	7.61	COc1ccc(C(F)(F)F)cc1S(=O)(=O)N[C@H]1CC[C@H](N2CCN(c3ccccc3OC(C)C)CC2)CC1 [Cpd 48, N-trans-{4-[4-(2-Isopropoxy-phenyl)-piperazin-1-yl]-cyclohexyl}-2-methoxy-5-trifluoromethyl-benzenesulfonamide]
6.26	7.61	9.14	CC(C)Oc1ccccc1N1CCN([C@H]2CC[C@H](NS(=O)(=O)c3cccc(F)c3)CC2)CC1 [Cpd 50, 3-Fluoro-N-trans-{4-[4-(2-isopropoxy-phenyl)-piperazin-1-yl]-cyclohexyl}-benzenesulfonamide]
